Test results from patent US11142504B2, “Substituted heterocycles as c-MYC targeting agents” (Northwestern University, priority 2016, dated 2021).

Tests used:
[1] = system: MycCap cells; assay: Cell viability of MycCap cells; type: cell-based; conditions: Mus musculus, Myc-CaP
[2] = system: PC12 cells; assay: Cell viability of PC12 cells; type: cell-based; conditions: Rattus norvegicus, PC-12; Cell viability of PC12 cells
Protocol: PC3 prostate cancer cell line with high Myc level and PC12 pheochromocytoma tumor cell line with non functional Max protein, which is not dependent on Myc-Max complex, were phased from ATCC. Cells were plated in 96 well plate at 1000 cells per well, and Myc inhibitor 361 at various concentrations was added to the cells next day. After 3 days of treatment, fresh medium with 361 were added again, and cell viability was measured by MTS assay at day 5 after the treatment. (See FIG. 11).

[3] = Stability in mouse liver microsomes; type: in vitro ADME; conditions: % remaining of compound after 60 min treatment with mouse liver microsomes
Protocol: In vitro metabolism of NUCC-176242 and NUCC-176248 were tested using mouse liver microsomes and a mouse S9 fraction. (See FIG. 9).

Compound `CCCCCCOc1ccc(-c2cc(C(F)(F)F)n(C)n2)c(O)c1-c1cncc(C#N)c1` [NUCC-0201212] has an IC50 [1] of 23.7 µM and an IC50 [2] of 30.8 µM.

With `CCCCOc1ccc(-c2cc(C(F)(F)F)n(C)n2)c(O)c1-c1ccc(Cl)c(C(F)(F)F)c1` [NUCC-0201227] the IC50 [1] was 4.5 µM and the IC50 [2] was 1 µM.

Compound `CC(CCOc1ccc(-c2cc(C(F)(F)F)n[nH]2)c(O)c1-c1cc(C(F)(F)F)cc(C(F)(F)F)c1)C(F)(F)F` (centres unmarked) [NUCC-0201198] has an IC50 [1] of 2.6 µM and an IC50 [2] of 8.2 µM.

For `Oc1c(-c2cc(C(F)(F)F)n[nH]2)ccc(OCCN2CCCC2)c1-c1cc(C(F)(F)F)cc(C(F)(F)F)c1` [NUCC-0201032], the IC50 [1] was 1 µM, the IC50 [2] was 11 µM and the “MLM % at 60 min” value [3] was 30.5%.

With `Cn1nc(-c2ccc(OCCCNC(=O)OC(C)(C)C)c(-c3cncc(C(F)(F)F)c3)c2O)cc1C(F)(F)F` [NUCC-0201656] the IC50 [1] was 5.5 µM and the IC50 [2] was 18 µM.

In the case of `CCCCCCOc1ccc(-c2cc(C(F)(F)F)n[nH]2)c(O)c1-c1cc(C(F)(F)F)cc(C(F)(F)F)c1` [NUCC-0201196], the IC50 [1] is reported as 4.5 µM and the “MLM % at 60 min” value [3] is reported as 66.6%.

`Cn1nc(-c2ccc(OCc3ccc(Cl)cc3)c(-c3cccc(C#N)c3)c2O)cc1C(N)=O` [NUCC-0200558] showed an IC50 [1] of 49.3 µM and an IC50 [2] of 31 µM.

`Cn1nc(-c2ccc(OCc3ccc(Cl)cc3)c(-c3cncc(C#N)c3)c2O)cc1C(F)(F)F` [NUCC-0201633] showed an IC50 [1] of 4.6 µM and an IC50 [2] of 27.3 µM.

For `CCCCOc1ccc(-c2cc(C(F)(F)F)n(C)n2)c(O)c1-c1cncc(C(F)(F)F)c1` [NUCC-0201209], the IC50 [1] was 4.4 µM and the “MLM % at 60 min” value [3] was 10.3%.

With `CCCCCCOc1ccc(-c2cc(C(F)(F)F)nn2C)c(O)c1-c1cncc(C#N)c1` [NUCC-0201207] the IC50 [1] was 5.7 µM and the “MLM % at 60 min” value [3] was 52.7%.

For `Cn1nc(C(F)(F)F)cc1-c1ccc(OCc2ccc(Cl)cc2)c(-c2cccc(C#N)c2)c1O` [NUCC-0198399], the IC50 [1] was 2.5 µM and the “MLM % at 60 min” value [3] was 80.3%.

With `O=C(O)c1cc(-c2ccc(OCc3ccc(Cl)cc3)c(-c3cc(C(F)(F)F)cc(C(F)(F)F)c3)c2O)n[nH]1` [NUCC-0200973] the IC50 [1] was 68.3 µM and the IC50 [2] was 29.6 µM.

Compound `CCCCCCOc1ccc(-c2cc(C(F)(F)F)n[nH]2)c(O)c1-c1cncc(C#N)c1` [NUCC-0201194] has an IC50 [1] of 4.2 µM and an IC50 [2] of 59.8 µM.

In the case of `COc1ccc(-c2cc(C(F)(F)F)[nH]n2)c(O)c1-c1cc(C(F)(F)F)cc(C(F)(F)F)c1` [NUCC-0201220], the IC50 [1] is reported as 4.9 µM and the IC50 [2] is reported as 91.6 µM.

For `N#Cc1cncc(-c2c(OCc3ccc(Cl)cc3)ccc(-c3cc(C(F)(F)F)n[nH]3)c2O)c1` [NUCC-0201038], the IC50 [1] was 6.8 µM and the IC50 [2] was 18.3 µM.

Compound `O=C1CCC(N2C(=O)c3cccc(OCc4cn(CCOCCOCCOCC(=O)Nc5ccc(COc6ccc(-c7cc(C(F)(F)F)n[nH]7)c(O)c6-c6cc(C(F)(F)F)cc(C(F)(F)F)c6)cc5)nn4)c3C2=O)C(=O)N1` (centres unmarked) [NUCC-0201202] has an IC50 [1] of 4 µM and an IC50 [2] of 23.1 µM.

For `CCCOc1ccc(-c2cc(C(F)(F)F)n[nH]2)c(O)c1-c1cc(C(F)(F)F)cc(C(F)(F)F)c1` [NUCC-0201197], the IC50 [1] was 3.4 µM and the IC50 [2] was 18.6 µM.

Compound `Cn1nc(C(F)(F)F)cc1-c1ccc(OCc2ccc(Cl)cc2)c(-c2cncc(C(F)(F)F)c2)c1O` [NUCC-0201630] has an IC50 [1] of 15.4 µM and an IC50 [2] of 42.3 µM.

Work on `CCCCCCOc1ccc(-c2cc(C(F)(F)F)nn2C)c(O)c1-c1cncc(C(F)(F)F)c1` [NUCC-0201205] yielded an IC50 [1] of 9.5 µM and an IC50 [2] of 36.3 µM.

`CC(C)CCOc1ccc(-c2cc(C(F)(F)F)n[nH]2)c(O)c1-c1cncc(C#N)c1` [NUCC-0201195] showed an IC50 [1] of 14.9 µM and an IC50 [2] of 70.3 µM.

Work on `[N-]=[N+]=NCCOCCOCCOCC(=O)Nc1ccc(COc2ccc(-c3cc(C(F)(F)F)n[nH]3)c(O)c2-c2cc(C(F)(F)F)cc(C(F)(F)F)c2)cc1` [NUCC-0201199] yielded an IC50 [1] of 3 µM and an IC50 [2] of 12.7 µM.

Work on `COc1ccc(COc2ccc(-c3cc(C(F)(F)F)n[nH]3)c(O)c2-c2cc(C(F)(F)F)cc(C(F)(F)F)c2)cc1` [NUCC-0201041] yielded an IC50 [1] of 12.6 µM and an IC50 [2] of 128 µM.

`CCCCOc1ccc(-c2cc(C(F)(F)F)n[nH]2)c(O)c1-c1ccc(Cl)c(C(F)(F)F)c1` [NUCC-0201225] gave an IC50 [1] of 19 µM and an IC50 [2] of 82.6 µM.
